Converted amounts (≈) assume the structure as drawn. Read-outs that look alike come from different tables or passages of the source.
Assays:
[1] = Measurement of kinetic solubility; conditions: pH 6.5, aqueous buffer, kinetic from dmso stock
Procedure: Kinetic solubility was determined with a […] stock solution from the compound(s) of interest. […] Samples and standards were then centrifuged and an aliquot was removed for HPLC analysis. Samples and standards were analyzed by HPLC and a final concentration for the sample was determined based on a one-point calibration curve from the corresponding standard. Results were reported as μg's/mL.

CDK2/Cyclin A = target: T1, CDK2/Cyclin A (Homo sapiens, UniProt P24941); assay: Inhibition of CDK2/Cyclin A retinoblastoma kinase activity (apparent Ki); assay type: biochemical
T1 construct: made in house; host or cells: CDK2: insect cells (baculovirus); cyclin A: E. coli
In short: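 Cyclin A complex (proteolyzed cyclin) purified by gel filtration; enzyme-initiated reactions ran 20 min at 30 °C, transferring radiolabelled phosphate from [32P]/[33P]ATP onto a protein substrate, stopped with EDTA and quantified by phosphorimager.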

Row | Compound | solubility ([1]; 100 mM sodium phosphate buffer) [µg/mL] | Ki (CDK2/Cyclin A; read-out: CDK2 Ki) [nM] | Ki (CDK2/Cyclin A) [nM] | solubility [1] [µg/mL]
1 | CCNCc1cncc(-c2ccc3[nH]nc(-c4nc(-c5cccc(OC)c5)c[nH]4)c3c2)c1C [Example 35, Ethyl-(5-{3-[4-(3-methoxy-phenyl)-1H-imidazol-2-yl]-1H-indazol-5-yl}-4-methyl-pyridin-3-ylmethyl)-amine] | 20 to 120 (≈ 45.6 to 274 µM) | < 50 | – | –
2 | COCc1cncc(-c2ccc3[nH]nc(-c4nc5c([nH]4)CCCC5)c3c2)c1C [Example 41, 5-(5-Methoxymethyl-4-methyl-pyridin-3-yl)-3-(4,5,6,7-tetrahydro-1H-benzoimidazol-2-yl)-1H-indazole] | > 120 | < 50 | – | –
3 | COCc1cncc(-c2ccc3[nH]nc(-c4ncc[nH]4)c3c2)c1C [Example 42, 3-(1H-Imidazol-2-yl)-5-(5-methoxymethyl-4-methyl-pyridin-3-yl)-1H-indazole] | > 120 | 50 to 200 | – | –
4 | CCOCc1cncc(-c2ccc3[nH]nc(-c4nc5c([nH]4)CCCC5)c3c2)c1C [Example 43, 5-(5-Ethoxymethyl-4-methyl-pyridin-3-yl)-3-(4,5,6,7-tetrahydro-1H-benzoimidazol-2-yl)-1H-indazole] | 20 to 120 (≈ 51.6 to 310 µM) | 50 to 200 | – | –
5 | CCOCc1cncc(-c2ccc3[nH]nc(-c4ncc[nH]4)c3c2)c1C [Example 44, 5-(5-Ethoxymethyl-4-methyl-pyridin-3-yl)-3-(1H-imidazol-2-yl)-1H-indazole] | > 120 | 50 to 200 | – | –
6 | CCNCc1cncc(-c2ccc3[nH]nc(-c4nc5c([nH]4)CCCC5)c3c2)c1CC [Example 46, Ethyl-{4-ethyl-5-[3-(4,5,6,7-tetrahydro-1H-benzoimidazol-2-yl)-1H-indazol-5-yl]-pyridin-3-ylmethyl}-amine] | > 120 | < 50 | – | –
7 | CCNCc1cncc(-c2ccc3[nH]nc(-c4ncc[nH]4)c3c2)c1CC [Example 47, Ethyl-{4-ethyl-5-[3-(1H-imidazol-2-yl)-1H-indazol-5-yl]-pyridin-3-ylmethyl}-amine] | > 120 | < 50 | – | –
8 | Cc1c(CNC(C)C)cncc1-c1ccc2[nH]nc(-c3ncc[nH]3)c2c1 [Example 48, {5-[3-(1H-Imidazol-2-yl)-1H-indazol-5-yl]-4-methyl-pyridin-3-ylmethyl}-isopropyl-amine] | > 120 | < 50 | – | –
9 | CCNCc1cncc(-c2ccc3[nH]nc(-c4nc(C(=O)NCc5cccnc5)c[nH]4)c3c2)c1C [Example 49, 2-(5-{5-[(ethylamino)methyl]-4-methylpyridin-3-yl}-1H-indazol-3-yl)-N-(pyridin-3-ylmethyl)-1H-imidazole-5-carboxamide] | > 120 | < 50 | – | –
10 | CCNCc1cncc(-c2ccc3[nH]nc(-c4nc(C(=O)NC5CCCCC5)c[nH]4)c3c2)c1C [Example 50, N-cyclohexyl-2-(5-{5-[(ethylamino)methyl]-4-methylpyridin-3-yl}-1H-indazol-3-yl)-1H-imidazole-5-carboxamide] | 20 to 120 (≈ 43.7 to 262 µM) | < 50 | – | –
11 | CCNCc1cncc(-c2ccc3[nH]nc(-c4ncc(C(=O)N[C@@H]5CCc6ccccc65)[nH]4)c3c2)c1C [Example 51, N-[(1R)-2,3-dihydro-1H-inden-1-yl]-2-(5-{5-[(ethylamino)methyl]-4-methylpyridin-3-yl}-1H-indazol-3-yl)-1H-imidazole-5-carboxamide] | 20 to 120 (≈ 40.7 to 244 µM) | < 50 | – | –
12 | CCNCc1cncc(-c2ccc3[nH]nc(-c4ncc(C(=O)N[C@H]5CCc6ccccc65)[nH]4)c3c2)c1C [Example 53, N-[(1S)-2,3-dihydro-1H-inden-1-yl]-2-(5-{5-[(ethylamino)methyl]-4-methylpyridin-3-yl]-1H-indazol-3-yl)-1H-imidazole-5-carboxamide] | 20 to 120 (≈ 40.7 to 244 µM) | < 50 | – | –
13 | CCNCc1cncc(-c2ccc3[nH]nc(-c4ncc(C(=O)NCCN(C)C)[nH]4)c3c2)c1C [Example 54, N-[2-(dimethylamino)ethyl]-2-(5-{5-[(ethylamino)methyl]-4-methylpyridin-3-yl}-1H-indazol-3-yl)-1H-imidazole-5-carboxamide] | > 120 | < 50 | – | –
14 | CCNCc1cncc(-c2ccc3[nH]nc(-c4ncc(C(=O)N5CCOCC5)[nH]4)c3c2)c1C [Example 55, N-[(4-methyl-5-{3-[5-(morpholin-4-ylcarbonyl)-1H-imidazol-2-yl]-1H-indazol-5-yl}pyridin-3-yl)methyl]ethanamine] | > 120 | < 50 | – | –
15 | CCNCc1cncc(-c2ccc3[nH]nc(-c4ncc(C(=O)N5CCCC5)[nH]4)c3c2)c1C [Example 61, N-[(4-methyl-5-{3-[5-(pyrrolidin-1-ylcarbonyl)-1H-imidazol-2-yl]-1H-indazol-5-yl}pyridin-3-yl)methyl]ethanamine] | 20 to 120 (≈ 46.6 to 279 µM) | < 50 | – | –
16 | CCNCc1cncc(-c2ccc3[nH]nc(-c4nc(C(=O)N5CCCCC5)c[nH]4)c3c2)c1C [Example 62, N-[(4-methyl-5-{3-[5-(piperidin-1-ylcarbonyl)-1H-imidazol-2-yl]-1H-indazol-5-yl}pyridin-3-yl)methyl]ethanamine] | > 120 | < 50 | – | –
17 | CCNCc1cncc(-c2ccc3[nH]nc(-c4nc(C(=O)NCC)c[nH]4)c3c2)c1C [Example 63, N-ethyl-2-(5-{5-[(ethylamino)methyl]-4-methylpyridin-3-yl}-1H-indazol-3-yl)-1H-imidazole-5-carboxamide] | > 120 | < 50 | – | –
18 | CCNCc1cncc(-c2ccc3[nH]nc(-c4nc(C(=O)NC(C)C)c[nH]4)c3c2)c1C [Example 64, 2-(5-{5-[(ethylamino)methyl]-4-methylpyridin-3-yl}-1H-indazol-3-yl)-N-isopropyl-1H-imidazole-5-carboxamide] | > 120 | < 50 | – | –
19 | CCNCc1cncc(-c2ccc3[nH]nc(-c4nc(C(=O)NCCOC)c[nH]4)c3c2)c1C [Example 65, 2-(5-{5-[(ethylamino)methyl]-4-methylpyridin-3-yl}-1H-indazol-3-yl)-N-(2-methoxyethyl)-1H-imidazole-5-carboxamide] | > 120 | – | < 50 | –
20 | CCNCc1cncc(-c2ccc3[nH]nc(-c4ncc(C(=O)N5CCN(Cc6ccccc6)CC5)[nH]4)c3c2)c1C [Example 66, N-{[5-(3-{5-[(4-benzylpiperazin-1-yl)carbonyl]-1H-imidazol-2-yl}-1H-indazol-5-yl)-4-methylpyridin-3-yl]methyl}ethanamine] | – | < 50 | – | > 120
21 | CCNCc1cncc(-c2ccc3[nH]nc(-c4ncc(C(=O)N5CC=C(c6ccccc6)CC5)[nH]4)c3c2)c1C [Example 67, N-{[4-methyl-5-(3-{5-[(4-phenyl-3,6-dihydropyridin-1(2H)-yl)carbonyl]-1H-imidazol-2-yl}-1H-indazol-5-yl)pyridin-3-yl]methyl}ethanamine] | 20 to 120 (≈ 38.6 to 232 µM) | < 50 | – | –
22 | CCNCc1cncc(-c2ccc3[nH]nc(-c4ncc(C(=O)N5Cc6ccccc6C5)[nH]4)c3c2)c1C [Example 68, N-[(5-{3-[5-(1,3-dihydro-2H-isoindol-2-ylcarbonyl)-1H-imidazol-2-yl]-1H-indazol-5-yl}-4-methylpyridin-3-yl)methyl]ethanamine] | < 20 | < 50 | – | –
23 | CCNCc1cncc(-c2ccc3[nH]nc(-c4ncc(C(=O)N5CCN(c6ccc(F)cc6F)CC5)[nH]4)c3c2)c1C [Example 69, N-({5-[3-(5-{[4-(2,4-difluorophenyl)piperazin-1-yl]carbonyl}-1H-imidazol-2-yl)-1H-indazol-5-yl]-4-methylpyridin-3-yl}methyl)ethanamine] | 20 to 120 (≈ 35.9 to 216 µM) | < 50 | – | –
24 | CCNCc1cncc(-c2ccc3[nH]nc(-c4ncc(C(=O)N5CCC6CCCCC6C5)[nH]4)c3c2)c1C (stereo not shown) [Example 71, N-[(4-methyl-5-{3-[5-(octahydroisoquinolin-2(1H)-ylcarbonyl)-1H-imidazol-2-yl]-1H-indazol-5-yl}pyridin-3-yl)methyl]ethanamine] | 20 to 120 (≈ 40.2 to 241 µM) | < 50 | – | –
25 | CCNCc1cncc(-c2ccc3[nH]nc(-c4ncc(C(=O)NC5C6CC7CC(C6)CC5C7)[nH]4)c3c2)c1C (stereo not shown) [Example 72, N-2-adamantyl-2-(5-{5-[(ethylamino)methyl]-4-methylpyridin-3-yl}-1H-indazol-3-yl)-1H-imidazole-5-carboxamide] | < 20 | < 50 | – | –
26 | CCNCc1cncc(-c2ccc3[nH]nc(-c4nc(C(=O)N5CCCCCC5)c[nH]4)c3c2)c1C [Example 74, N-[(5-{3-[5-(azepan-1-ylcarbonyl)-1H-imidazol-2-yl]-1H-indazol-5-yl}-4-methylpyridin-3-yl)methyl]ethanamine] | > 120 | < 50 | – | –
27 | CCNCc1cncc(-c2ccc3[nH]nc(-c4ncc(C(=O)N[C@H]5CCCCNC5=O)[nH]4)c3c2)c1C [Example 75, 2-(5-{5-[(ethylamino)methyl]-4-methylpyridin-3-yl}-1H-indazol-3-yl)-N-[(3S)-2-oxoazepan-3-yl]-1H-imidazole-5-carboxamide] | > 120 | < 50 | – | –
28 | CCNCc1cncc(-c2ccc3[nH]nc(-c4nc(C(=O)NC5CCNCC5)c[nH]4)c3c2)c1C [Example 76, 2-(5-{5-[(ethylamino)methyl]-4-methylpyridin-3-yl}-1H-indazol-3-yl)-N-piperidin-4-yl-1H-imidazole-5-carboxamide] | > 120 | 50 to 200 | – | –
29 | CCNCc1cncc(-c2ccc3[nH]nc(-c4nc(C(=O)NC5CC6CCC(C5)N6)c[nH]4)c3c2)c1C (stereo not shown) [Example 77, N-8-azabicyclo[3.2.1]oct-3-yl-2-(5-{5-[(ethylamino)methyl]-4-methylpyridin-3-yl}-1H-indazol-3-yl)-1H-imidazole-5-carboxamide] | > 120 | > 200 | – | –

— patent US20050090529A1, “3,5 Disubstituted indazole compounds with nitrogen-bearing 5-membered heterocycles, pharmaceutical compositions, and methods for mediating or inhibiting cell proliferation” (PFIZER INC, priority 2003, published 2005)
